Results: patent publication US20050119304A1, “Urea derivatives” (priority 2001, published 2005)
Like-named read-outs stand apart in the source and are kept apart here.

Key:
[1] = molecular target: T1, human VR1 (Homo sapiens, UniProt Q8NER1); test: Capsaicin-induced Ca2+ influx in the human VR1-transfected CHO cell line (Assay 1); format: cell-based
T1 construct: The cloned hVR1 cDNA was constructed with pcDNA3 vector and transfected into a CHOluc9aeq cell line; expressed in transfected cells
Excerpt: [Measurement of Capsaicin-Induced Ca^2+ Influx in the Human VR1-Transfected CHO Cell Line] (Assay 1)
(1) Establishment of the Human VR1-CHOluc9aeq Cell Line
Human vanilloid receptor (hVR1) cDNA was cloned from libraries of axotomized dorsal root ganglia (WO2000/29577). The cloned hVR1 cDNA was constructed with pcDNA3 vector and transfected into a CHOluc9aeq cell line. The cell line contains aequorin and CRE-luciferase reporter genes as read-out signals. The transfectants were cloned by limiting dilution in selection medium (DMEM/F12. medium (Gibco BRL) supplemented with 10% FCS, 1.4 mM Sodium pyruvate, 20 mM HEPES, 0.15% Sodium bicarbonate, 100 U/ml penicillin, 100 μg/ml strept mycin, 2 mM glutamine, non-essential amino acids and 2 mg/ml G418). Ca^2+ influx was examined in the capsaicin-stimulated clones. A high responder clone was selected and used for further experiments in the project. The human VR1-CHOluc9aeq cells were maintained in the selection medium and passaged every 3-4 days at 1-2.5×10^5 cells/flask ([…]).
(2) Measurement of Ca^2+ Influx Using FDSS-3000
Human VR1-CHOluc9aeq cells were suspended in a culture medium which is the same as the selection medium except for G418 and seeded at a density of 1,000 cells per well into 384-well plates (black walled clear-base/Nalge Nunc International). Following the culture for 48 hrs the medium was changed to 2 μM Fluo-3 AM (Molecular Probes) and 0.02% Puronic F-127 in assay buffer (Hank's balanced salt solution (HBSS), 17 mM HEPES (pH7.4), 1 mM Probenecid, 0.1% BSA) and the cells were incubated for 60 min at 25° C. After washing twice with assay buffer the cells were incubated with a test compound or vehicle for 20 min at 25° C. Mobilization of cytoplasmic Ca^2+ was measured by FDSS-3000 (λex=488 nm, λem=540 nm/Hamamatsu Photonics) for 60 sec after the stimulation with 10 nM capsaicin. Integral R was calculated and compared with controls.
The data corresponds to the compounds as yielded by solid phase synthesis and thus to levels of purity of about 40 to 90%.

T1 sequence (Q8NER1 whole entry): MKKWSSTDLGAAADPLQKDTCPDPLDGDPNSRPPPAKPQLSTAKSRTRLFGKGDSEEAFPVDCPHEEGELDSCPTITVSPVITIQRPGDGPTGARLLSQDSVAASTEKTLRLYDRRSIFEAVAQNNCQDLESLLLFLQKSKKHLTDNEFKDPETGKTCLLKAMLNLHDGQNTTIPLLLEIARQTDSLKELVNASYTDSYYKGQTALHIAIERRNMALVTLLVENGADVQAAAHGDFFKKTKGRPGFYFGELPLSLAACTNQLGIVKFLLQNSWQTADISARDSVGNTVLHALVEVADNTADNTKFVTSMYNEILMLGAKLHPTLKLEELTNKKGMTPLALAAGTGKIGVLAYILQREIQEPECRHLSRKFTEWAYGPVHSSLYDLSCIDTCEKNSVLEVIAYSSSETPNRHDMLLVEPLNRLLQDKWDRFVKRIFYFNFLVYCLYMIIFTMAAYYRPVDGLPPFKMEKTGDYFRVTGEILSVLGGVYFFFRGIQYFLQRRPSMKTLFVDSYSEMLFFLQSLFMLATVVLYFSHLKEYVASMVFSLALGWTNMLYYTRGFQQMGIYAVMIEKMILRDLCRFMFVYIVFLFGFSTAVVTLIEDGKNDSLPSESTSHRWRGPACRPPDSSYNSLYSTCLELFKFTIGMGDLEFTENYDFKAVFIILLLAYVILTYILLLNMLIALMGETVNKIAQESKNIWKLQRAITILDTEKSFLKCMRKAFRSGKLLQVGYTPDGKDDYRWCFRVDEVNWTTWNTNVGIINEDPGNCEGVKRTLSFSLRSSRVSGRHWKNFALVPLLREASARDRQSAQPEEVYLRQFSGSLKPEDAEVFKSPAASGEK

Structure (SMILES) | IC50 ([1]; read-out: hVR1 class) [nM] | melting point [°C] | IC50 ([1]; read-out: Activity grade) [nM]
O=C(Nc1ccc(Cl)c(C(F)(F)F)c1)Nc1ccc2cc[nH]c2c1 [Example 6] | 100 to 500 | 245 to 248 | –
O=C(Nc1ccccc1F)Nc1cccc2[nH]ccc12 [Example 94] | 500 to 1000 | 244 to 246 | –
CSc1cccc(NC(=O)Nc2ccc3[nH]ccc3c2)c1 [Example 71] | 100 to 500 | 236 to 239 | –
O=C(Nc1ccc2ccccc2c1)Nc1cccc2[nH]ccc12 [Example 88] | 100 to 500 | 242 to 243 | –
Cc1nc2c(NC(=O)Nc3ccc(Cl)c(C(F)(F)F)c3)cccc2[nH]1 [Example 53] | < 100 | 189 to 191 | –
Cc1nc2cc(NC(=O)Nc3ccc(Oc4ccccc4)cc3)ccc2s1 [Example 25] | < 100 | 228 to 229 | –
O=C(Nc1cc(Cl)cc(Cl)c1)Nc1cccc2[nH]ccc12 [Example 93] | 100 to 500 | 262 to 263 | –
Cc1cccc(NC(=O)Nc2ccc3sc(C)nc3c2)c1 [Example 20] | < 100 | 200 to 202 | –
Cc1ccc(NC(=O)Nc2cccc3[nH]ccc23)cc1Cl [Example 65] | < 100 | 246 to 247 | –
Cc1nc2cc(NC(=O)Nc3ccc(Cl)c(Cl)c3)ccc2s1 [Example 29] | < 100 | – | –
Cc1nc2cc(NC(=O)Nc3ccc(F)cc3F)ccc2s1 [Example 30] | < 100 | 243 to 244 | –
O=C(Nc1ccc(Cl)c([N+](=O)[O-])c1)Nc1cccc2[nH]ccc12 [Example 96] | 100 to 500 | 233 to 235 | –
Cc1nc2cc(NC(=O)Nc3ccc(Br)cc3)ccc2s1 [Example 26] | < 100 | > 250 | –
O=C(Nc1cccc(F)c1)Nc1cccc2[nH]ccc12 [Example 90] | 500 to 1000 | 225 to 226 | –
Cc1cccc(NC(=O)Nc2ccc3[nH]c(C(F)(F)F)nc3c2)c1 [Example 76] | 500 to 1000 | 245 to 247 | –
Cc1cccc(NC(=O)Nc2cccc3[nH]ccc23)c1 [Example 33] | 100 to 500 | 237 to 239 | –
O=C(Nc1ccc(Cl)c(C(F)(F)F)c1)Nc1cccc2[nH]c(C(F)(F)F)nc12 [Example 9] | < 100 | 165 to 169 | –
Cc1nc2cc(NC(=O)Nc3ccc(C(C)C)cc3)ccc2[nH]1 [Example 50] | 500 to 1000 | > 250 | –
O=C(Nc1ccc(Br)cc1)Nc1cccc2[nH]ccc12 [Example 60] | 100 to 500 | 238 to 240 | –
O=C(Nc1cccc2ccccc12)Nc1cccc2[nH]ccc12 [Example 62] | < 100 | > 250 | –
O=C(NCc1cccc(F)c1)Nc1cccc2[nH]ccc12 [Example 99] | 500 to 1000 | 190 to 192 | –

Structure (SMILES) | IC50 ([1]; read-out: hVR1 class) [nM] | melting point [°C] | IC50 ([1]; read-out: Activity grade) [nM]
Cc1nc2c(NC(=O)Nc3ccc(Oc4ccccc4)cc3)cccc2[nH]1 [Example 54] | < 100 | 223 to 225 | –
O=C(NCc1ccccc1Cl)Nc1cccc2[nH]ccc12 [Example 101] | 100 to 500 | 237 to 238 | –
O=C(Nc1cccc(-c2ccccc2)c1)Nc1ccc2[nH]ccc2c1 [Example 46] | 100 to 500 | 204 to 206 | –
Cc1cccc(NC(=O)Nc2ccc3[nH]ccc3c2)c1 [Example 70] | 500 to 1000 | 250 | –
O=C(Nc1cccc(-c2ccccc2)c1)Nc1cccc2[nH]ccc12 [Example 2, N-(1,1′-biphenyl-3-yl)-N′-(1H-indol-4-yl)urea] | – | 213 to 215 | < 100
O=C(Nc1cc([N+](=O)[O-])ccc1F)Nc1cccc2[nH]ccc12 [Example 97] | 500 to 1000 | 261 to 263 | –
O=C(Nc1ccc(Cl)c(C(F)(F)F)c1)Nc1ccc2[nH]ccc2c1 [Example 5] | 100 to 500 | 234 to 235 | –
O=C(Nc1ccc(Oc2ccccc2)cc1)Nc1cccc2[nH]c(C(F)(F)F)nc12 [Example 106] | 100 to 500 | – | –
COc1cccc(NC(=O)Nc2ccc3c(c2)S(=O)(=O)C=C3)c1 [Example 45] | 500 to 1000 | 206 to 208 | –
CSc1nc2ccc(NC(=O)Nc3ccc(Cl)c(C(F)(F)F)c3)cc2s1 [Example 14] | 100 to 500 | 236 to 238 | –
Cc1nc2cc(NC(=O)Nc3cc(C(F)(F)F)ccc3Cl)ccc2s1 [Example 32] | < 100 | 240 to 241 | –
O=C(Nc1ccc(F)cc1)Nc1ccc2[nH]ccc2c1 [Example 72] | 500 to 1000 | 243 to 245 | –
Cc1nc2cc(NC(=O)Nc3ccc4ccccc4c3)ccc2s1 [Example 27] | < 100 | > 250 | –
CC(C)c1ccc(NC(=O)Nc2ccc3[nH]cnc3c2)cc1 [Example 59] | 500 to 1000 | 226 to 229 | –
CSc1cccc(NC(=O)Nc2cccc3[nH]ccc23)c1 [Example 34] | 100 to 500 | 198 to 201 | –
O=C(Nc1ccc(Cl)c(C(F)(F)F)c1)Nc1ccc2[nH]cnc2c1 [Example 57] | 100 to 500 | 218 to 220 | –
O=C(Nc1ccc(Cl)c(C(F)(F)F)c1)Nc1cccc2[nH]ccc12 [Example 8] | < 100 | 230 to 233 | –
Cc1nc2cc(NC(=O)Nc3cccc(-c4ccc(Cl)cc4)c3)ccc2s1 [Example 47] | 100 to 500 | – | –
O=C(Nc1ccc(F)cc1)Nc1ccc2[nH]ncc2c1 [Example 67] | 500 to 1000 | > 250 | –
O=C(Nc1cc(C(F)(F)F)ccc1Cl)Nc1cccc2[nH]ccc12 [Example 68] | < 100 | 211 to 213 | –
Cc1cccc(NC(=O)Nc2ccc3c(c2)S(=O)(=O)C=C3)c1 [Example 38] | 500 to 1000 | 219 to 222 | –

Structure (SMILES) | IC50 ([1]; read-out: hVR1 class) [nM] | melting point [°C] | IC50 ([1]; read-out: Activity grade) [nM]
Cc1nc2cc(NC(=O)Nc3cccc(C(F)(F)F)c3)ccc2s1 [Example 23] | < 100 | 229 to 231 | –
COc1ccc(NC(=O)Nc2ccc3sc(C)nc3c2)cc1 [Example 28] | 100 to 500 | 215 to 217 | –
Cc1nc2cc(NC(=O)Nc3cccc4ccccc34)ccc2s1 [Example 40] | < 100 | > 250 | –
O=C(Nc1ccc(Cl)c(C(F)(F)F)c1)Nc1ccc2[nH]c(C(F)(F)F)nc2c1 [Example 104] | 500 to 1000 | – | –
O=C(Nc1cccc(Cl)c1)Nc1cccc2[nH]ccc12 [Example 87] | 100 to 500 | 238 to 239 | –
CCOC(=O)c1cccc(NC(=O)Nc2cccc3[nH]ccc23)c1 [Example 85] | < 100 | 194 to 196 | –
O=C(Nc1ccc(Cl)c(Cl)c1)Nc1cccc2[nH]ccc12 [Example 63] | < 100 | 244 to 245 | –
O=C(Nc1ccccc1-c1ccccc1)Nc1cccc2[nH]ccc12 [Example 86] | 500 to 1000 | 104 to 106 | –
Cc1nc2c(NC(=O)Nc3ccc(C(C)C)cc3)cccc2[nH]1 [Example 55] | 100 to 500 | 216 to 218 | –
O=C(Nc1ccc(F)cc1)Nc1cccc2[nH]ccc12 [Example 35] | 100 to 500 | 239 to 241 | –
O=C(NCc1ccc(Br)cc1)Nc1cccc2[nH]ccc12 [Example 89] | < 100 | 199 to 202 | –
Cc1nc2cc(NC(=O)Nc3cccc(-c4ccccc4)c3)ccc2s1 [Example 56] | 100 to 500 | 216 to 219 | –
Cc1nc2cc(NC(=O)Nc3ccc(C)c(Cl)c3)ccc2s1 [Example 31] | < 100 | 230 to 232 | –
O=C(Nc1ccc(Cl)c(C(F)(F)F)c1)Nc1cccc2cc[nH]c12 [Example 7] | < 100 | 229 to 233 | –
Cc1ccc(CNC(=O)Nc2cccc3[nH]ccc23)cc1 [Example 100] | 100 to 500 | 223 | –
CSc1cccc(NC(=O)Nc2ccc3c(c2)S(=O)(=O)C=C3)c1 [Example 42] | 100 to 500 | 212 to 213 | –
O=C(Nc1cccc(C(F)(F)F)c1)Nc1ccc2c(c1)S(=O)(=O)C=C2 [Example 44] | – | > 250 | –
O=C(Nc1ccc(Cl)c(C(F)(F)F)c1)Nc1ccc2c(c1)S(=O)(=O)C=C2 [Example 13] | < 100 | – | –
O=C(NCc1ccc(Br)cc1)Nc1cccc2[nH]c(C(F)(F)F)nc12 [Example 105] | 500 to 1000 | – | –
Cc1cccc(NC(=O)Nc2ccc3[nH]ncc3c2)c1 [Example 103] | 500 to 1000 | – | –
